Measurements taken from US8951529B2, “Methods of using small compounds to enhance myeloid derived suppressor cell function for treating autoimmune diseases” (Icahn School of Medicine at Mount Sinai, priority 2009, dated 2015).

Legend:
[1] = tested on: multiple sclerosis; details: GA alone, Johnson et al. (1995); cited from earlier work
[2] = tested on: MDSCs derived from TRIF KO mice; details: OVA peptide, CD4 OVA TCR splenocytes, 5 days, FIG. 9D
Description: TRIF is upstream of IRF-3. MDSCs derived from wild type or TRIF KO mice were cultured in the presence of OVA peptide and CD4 OVA TCR transgenic splenocytes for 5 days. Cells were stained with primary antibody specific for Foxp3, CD4 and CD25 and analyzed by flow cytometry.

[3] = tested on: IBD; details: GA alone, clinical studies discontinued; cited from earlier work
[4] = tested on: DSS-induced colitis; assay: DSS-induced colitis in vivo model; set-up: species or system C57BL/6 mice
Text: In certain aspects, the invention is related to the treatment of IBDs. Mouse models of IBD are well known in the art, and may be used to model human IBDs. For example, dextran sodium sulfate (DSS) may be administered to mice to induce IBD. In this model, mice are fed with water containing 3.5% DSS from day 0 to day 11. Following treatment, mice develop colitis. The severity of colitis is quantified (assigned a clinical score) by assessing stool consistency, bleeding, and weight loss, which ranges from 0 (healthy) to 4 (maximal severity). Histologically, DSS produces submucosal erosions, ulceration, inflammatory cell infiltration and crypt abscess as well as epithelioglandular hyperplasia. […] [Kawada et al., 2007, World J. Gastroenterol. 13: 5581-5593; Okayasu et al., 1990, Gastroenterology 98:694-702]
For adoptive transfer of MDSCs, 5×10^6 purified MDSCs suspended in PBS were administered by intravenous infusion at day 0 and day 7.
Mice were left untreated or treated with sorted MDSCs (5×10^6 cells/mouse) alone or in combination with GA and/or SP600125 (Sigma-Aldrich), on the day of disease induction. […] The severity of colitis was quantitated as a clinical score by assessing stool consistency, bleeding, and weight loss, which ranges from 0 (healthy) to 4 (maximal severity). The clinical score (weight loss, stool consistency, and bleeding) of treated mice was assessed in a double-blind fashion.
On day 11 post-IBD induction, colon tissues from treated mice were removed, fixed in 3% formaldehyde, sectioned, and stained with H&E staining to determine the pathology score of colitis. To reflect the general condition of the mice, a disease activity index (DAI) was determined by an investigator blinded to the protocol by scoring the extent of body weight loss, stool guaiac positivity or gross bleeding, and stool consistency according to the method described in Murthy et al. (1993) “Treatment of Dextran Sulfate Sodium-Induced Murine Colitis by Intracolonic Cyclosporin,” Digest. […] Stool consistency and the degree of blood in stool were evaluated on the day when animals were killed. […]

[5] = tested on: normal CD115+ monocytes; assay: Normal monocyte assay: Treg induction in co-culture with normal monocytes; format: cell-based, mouse; details: monocytes:CD4 OTII TCR splenocytes 1:4, five days, FIG. 2
Text: CD115+ MDSCs and normal CD115+ monocytes were isolated from the bone marrows of tumor-bearing and naive Balb/c mice, respectively, and were co-cultured with CD4 OTII TCR transgenic splenocytes at a ratio of 1:4 in the absence or presence of GA, SP600125, or both.
To verify whether the enhancement of suppressive activities (suppression of T-cell proliferation and Treg cell induction) by GA and SP600125 is specific to MDSCs, the Treg cell inducing activity of normal CD115+ monocytes from naive mice was analyzed in the presence of GA and SP600125.

[6] = tested on: Gr-1+CD115+ MDSCs; assay: Cytokine production by IFN-γ stimulated MDSCs (ELISA); format: cell-based, mouse; details: IFN-γ stimulation, 24 hours, FIG. 3A
Description: Sorted Gr-1+CD115+ MDSCs from tumor-bearing mice were stimulated with IFN-γ in the absence or presence of GA, SP600125, or both. Twenty-four hours after stimulation, culture supernatants were collected and the concentrations of IL-10, TGF-β, IL-6, and IL-23 were determined by ELISA (R&D Systems).
It was next determined whether GA, SP600125, or both exert an effect on cytokine production by MDSCs. Sorted Gr-1+CD115+ MDSCs from tumor-bearing mice were stimulated with IFN-γ in the absence or presence of GA, SP600125, or both. Twenty-four (24) hours after stimulation, culture supernatants were collected and the concentrations of IL-10, TGF-β, IL-6, and IL-23 were determined by ELISA (R&D Systems®). GA or SP600125 alone was capable of enhancing the secretion of IL-10 and TGF-β while decreasing IL-6 and IL-23 production by MDSCs in vitro (FIG. 3A).

## L-glutamic acid polymer with L-alanine, L-lysine and L-tyrosine, acetate (salt) [GA]
[1]
  efficacy for treating multiple sclerosis: only partially effective
[2]
  MDSC-mediated Treg cell induction in the absence of TRIF: cannot enhance
[3]
  efficacy for treating IBD: failed to treat IBD
[4]; day 11, in comparison with naive healthy mice, FIG. 5C
  decrease in colonic length: 45%
[4]; scale 0-4, 3.5% DSS day 0 to 11, GA s.c., SP600125 i.p. daily, MDSCs 5×10^6 i.v. days 0 and 7, FIG. 5A
  IBD clinical score: did not significantly lower
[5]
  percentage of CD4+CD25+Foxp3+ Treg cells in the co-culture with normal monocytes: slightly increased
[6]
  IL-6 production by MDSCs: decreasing
  IL-23 production by MDSCs: decreasing
  secretion of IL-10 by MDSCs: enhancing
  secretion of TGF-β by MDSCs: enhancing
